The source of these data is US7732374B2, “Fungicidal mixtures based on prothioconazole and an insecticide” (priority 2002, dated 2010).

SMILES strings stand for the structures.

In this assay the test system is Sphaerotheca fuliginea. Description: Protective activity against mildew of cucumbers caused by Sphaerotheca fuliginea. In kind it is in vivo. The following applies: inoculated 20 hours after spraying, evaluated after 7 days. Here is the method:
Evaluation was carried out by determining the infected leaf areas in percent. These percentages were converted into efficacies. The efficacy (W) was calculated as follows using Abbot's formula:
[formula] • α corresponds to the fungal infection of the treated plants in % and • β corresponds to the fungal infection of the untreated (control) plants in %
An efficacy of 0 means that the infection level of the treated plants corresponds to that of the untreated control plants; an efficacy of 100 means that the treated plants were not infected.
20 hours after the spray coating had dried on, the plants were inoculated with an aqueous spore suspension of mildew of cucumbers (Sphaerotheca fuliginea). The plants were then cultivated in a greenhouse at 20-24° C. and 60-80% relative atmospheric humidity for 7 days. The extent of mildew development was then determined visually in % infection of the cotyledon area.
The visually determined values for the percentage of infected leaf areas were converted into efficacies in % of the untreated control. An efficacy of 0 means the same degree of infection as the untreated control, an efficacy of 100 means 0% infection.

Where [1] appears, read: 0.015 ppm active compound in the spray liquor.
Setting [2] is: 0.06 ppm active compound in the spray liquor.
Where [3] appears, read: 0.25 ppm active compound in the spray liquor.
Setting [4] is: 1 ppm active compound in the spray liquor.

In the case of `CCOP(=S)(OCC)Oc1nc(Cl)c(Cl)cc1Cl` [Compound III, chlorpyrifos], the “Efficacy in % of the untreated control” value is on record as 0% under setting [1], 0% under setting [2] and 0% under setting [3].

For `N#Cc1nn(-c2c(Cl)cc(C(F)(F)F)cc2Cl)c(N)c1[S+]([O-])C(F)(F)F` (stereo not drawn) [Compound II, fipronil], the “Efficacy in % of the untreated control” value by setting is: under setting [1], 0%; under setting [2], 0%; under setting [3], 0%; under setting [4], 0%.

Consider `OC(Cc1ccccc1Cl)(Cn1nc[nH]c1=S)C1(Cl)CC1` (stereo not drawn) [Compound I, 2-[2-(1-chlorocyclopropyl)-3-(2-chlorophenyl)-2-hydroxypropyl]-2,4-dihydro-[1,2,4]-triazole-3-thione], for which the “Efficacy in % of the untreated control” value is recorded as 0% under setting [1], 0% under setting [2] and 5% under setting [3].

As to `CN1COCN(Cc2cnc(Cl)s2)/C1=N\[N+](=O)[O-]` [Compound IV, thiamethoxam], the “Efficacy in % of the untreated control” value was 0% under setting [1]; 0% under setting [2]; 0% under setting [3]; 0% under setting [4]; 0% (4 ppm active compound in the spray liquor).
